Measurements: patent publication US10414811B2, “Protease-resistant lipidated GLP-1 analogs” (MEDIMMUNE LIMITED, priority 2015, dated 2019)
Like-named read-outs stand apart in the source and are kept apart here. Numbered stars: 1 amine (or outer) side, 2 acyl side, 3 side chain; on linkers, the order of the positions; unused ones are H or OH. Square brackets hold non-standard residues; d marks the D form. Side chains are listed from the residue outwards. Peptide text beside a SMILES is read from it. * marks the point of attachment. C18 diacid = O=C(O)CCCCCCCCCCCCCCCCC(=O)*; γGlu = O=C(O)[C@H](CCC(=O)[*:2])N[*:1]; Palmitoyl = CCCCCCCCCCCCCCCC(=O)*; αMeF = C[C@](N)(Cc1ccccc1)C(=O)O; αMeK = C[C@](N)(CCCCN)C(=O)O; αMeS = C[C@](N)(CO)C(=O)O; AEEA = NCCOCCOCC(=O)O; Aib = CC(C)(N)C(=O)O

What was measured:
Type in all cases: cell-based
[1] = molecular target: T1, human glucagon receptor (GCGR) (Homo sapiens, UniProt P47871); assay: cAMP assay, human GCGR cells; details: cAMP assay
T1 construct: expressed in transfected cells
Summary of the method: (§1)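 Peptide-stimulated cAMP measured by two-step HTRF after a 30 min room-temperature incubation with receptor-expressing cells (hGLP-1R, hGIPR at 1×10^5 cells/ml; hGCGR at 2×10^5 cells/ml). Duplicate dilutions; EC50 from 4-parameter logistic fit of % Delta F.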

GLP-1R (INS1e assay) = molecular target: T2, GLP-1R (INS1e assay) (Rattus norvegicus, UniProt P32301); assay: INS1e assay, cAMP activity at GLP-1R; details: mono-lipidated peptides
T2 construct: endogenous in cells; host or cells: INS-1E cells
T2 sequence (P32301 22-463): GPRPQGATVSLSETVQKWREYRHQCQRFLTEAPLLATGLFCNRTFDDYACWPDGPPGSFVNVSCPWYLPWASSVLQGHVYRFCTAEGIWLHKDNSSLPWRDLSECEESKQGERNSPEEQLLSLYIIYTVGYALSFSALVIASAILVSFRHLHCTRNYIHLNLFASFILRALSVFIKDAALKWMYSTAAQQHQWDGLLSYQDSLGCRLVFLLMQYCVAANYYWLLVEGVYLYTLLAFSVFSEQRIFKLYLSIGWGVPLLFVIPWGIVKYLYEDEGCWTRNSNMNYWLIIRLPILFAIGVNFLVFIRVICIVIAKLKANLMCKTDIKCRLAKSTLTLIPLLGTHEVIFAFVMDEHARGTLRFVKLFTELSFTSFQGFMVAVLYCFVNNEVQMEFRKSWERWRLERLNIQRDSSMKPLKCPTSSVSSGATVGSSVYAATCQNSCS
Summary of the method: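 It pairs cAMP-d2 acceptor with anti-cAMP cryptate donor, both prepared 1/20 in conjugate/lysis buffer, applied as a two-step protocol.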

[2] = molecular target: T3, human GLP-1 receptor (GLP-1R) (Homo sapiens, UniProt P43220); assay: cAMP assay, human GLP-1R cells
T3 construct: expressed in transfected cells
Summary of the method: as §1

[3] = molecular target: T4, human glucose-dependent insulinotropic peptide receptor (GIPR) (Homo sapiens, UniProt P48546); assay: cAMP assay, human GIPR cells; details: cAMP assay
T4 construct: expressed in transfected cells
T4 sequence (P48546 22-466): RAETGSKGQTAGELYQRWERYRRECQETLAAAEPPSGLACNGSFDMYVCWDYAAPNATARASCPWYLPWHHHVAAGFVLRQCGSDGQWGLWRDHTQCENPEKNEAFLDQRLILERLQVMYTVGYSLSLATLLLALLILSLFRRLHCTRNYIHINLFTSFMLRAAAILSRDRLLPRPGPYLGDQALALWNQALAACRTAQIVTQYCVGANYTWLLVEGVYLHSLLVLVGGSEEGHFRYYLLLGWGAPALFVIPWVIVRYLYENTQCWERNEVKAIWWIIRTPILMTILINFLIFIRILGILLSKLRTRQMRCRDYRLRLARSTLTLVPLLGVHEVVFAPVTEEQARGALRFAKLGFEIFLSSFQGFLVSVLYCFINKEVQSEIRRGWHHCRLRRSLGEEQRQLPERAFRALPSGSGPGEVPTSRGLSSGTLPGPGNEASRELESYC
Summary of the method: as §1

[4] = first determination (n1), read-out: Primary assay EC50 Gluc-R (n1)
[5] = second determination (n2), read-out: Primary assay EC50 Gluc-R (n2)
[6] = mean of n1 and n2, read-out: INS1e assay EC50 Mean pM GLP-1R
[7] = replicate n1, read-out: INS1e assay EC50 GLP-1R n1
[8] = replicate n2, read-out: INS1e assay EC50 GLP-1R n2
[9] = cAMP assay, first determination (n1), read-out: Primary assay EC50 GLP-1R n1
[10] = cAMP assay, second determination (n2), read-out: Primary assay EC50 GLP-1R n2
[11] = mean of n1 and n2, read-out: Mean pM GLP-1R
[12] = first determination (n1), read-out: Primary assay EC50 GIP-R (n1)
[13] = second determination (n2), read-out: Primary assay EC50 GIP-R (n2)

T1 sequence (P47871 26-477): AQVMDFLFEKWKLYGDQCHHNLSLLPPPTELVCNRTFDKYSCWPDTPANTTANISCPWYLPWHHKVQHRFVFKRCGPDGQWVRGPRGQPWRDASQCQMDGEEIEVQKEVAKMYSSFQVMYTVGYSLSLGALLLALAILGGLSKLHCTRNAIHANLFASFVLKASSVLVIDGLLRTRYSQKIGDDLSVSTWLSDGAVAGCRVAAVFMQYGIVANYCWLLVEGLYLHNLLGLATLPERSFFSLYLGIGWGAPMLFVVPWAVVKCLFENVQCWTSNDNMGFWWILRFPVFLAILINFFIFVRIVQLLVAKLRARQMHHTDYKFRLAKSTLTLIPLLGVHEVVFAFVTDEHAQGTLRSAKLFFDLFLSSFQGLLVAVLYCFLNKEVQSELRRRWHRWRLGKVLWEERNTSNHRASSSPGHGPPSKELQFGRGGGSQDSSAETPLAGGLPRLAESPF
T3 sequence (P43220 24-463): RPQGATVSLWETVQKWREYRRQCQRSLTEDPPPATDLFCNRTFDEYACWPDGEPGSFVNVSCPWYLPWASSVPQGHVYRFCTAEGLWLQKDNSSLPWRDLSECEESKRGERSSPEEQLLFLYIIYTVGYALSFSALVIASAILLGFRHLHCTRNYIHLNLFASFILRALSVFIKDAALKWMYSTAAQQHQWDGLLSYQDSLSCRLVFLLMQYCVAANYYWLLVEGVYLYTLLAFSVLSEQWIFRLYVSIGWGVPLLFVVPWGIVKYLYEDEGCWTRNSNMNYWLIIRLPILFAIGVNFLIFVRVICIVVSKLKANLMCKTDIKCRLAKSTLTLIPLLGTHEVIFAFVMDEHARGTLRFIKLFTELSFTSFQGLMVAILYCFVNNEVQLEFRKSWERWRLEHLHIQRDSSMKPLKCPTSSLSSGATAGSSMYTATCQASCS

## CC[C@H](C)[C@H](NC(=O)[C@H](Cc1ccccc1)NC(=O)[C@H](CCC(=O)O)NC(=O)[C@H](CCCCN)NC(=O)[C@H](C)NC(=O)[C@H](C)NC(=O)[C@H](CCC(=O)O)NC(=O)CNC(=O)[C@H](CCC(=O)O)NC(=O)[C@H](CC(C)C)NC(=O)[C@](C)(Cc1ccccc1)NC(=O)[C@H](CO)NC(=O)[C@](C)(CO)NC(=O)[C@@H](NC(=O)[C@H](CC(=O)O)NC(=O)[C@H](CO)NC(=O)[C@@H](NC(=O)[C@](C)(Cc1ccccc1)NC(=O)[C@H](CO)NC(=O)CNC(=O)[C@H](CCC(=O)O)NC(=O)C(C)(C)NC(=O)[C@@H](N)Cc1c[nH]cn1)[C@@H](C)O)C(C)C)C(=O)N[C@@H](CCCCNC(=O)COCCOCCNC(=O)COCCOCCNC(=O)CC[C@H](NC(=O)CCCCCCCCCCCCCCCCC(=O)O)C(=O)O)C(=O)N[C@@H](Cc1c[nH]c2ccccc12)C(=O)N[C@H](C(=O)N[C@H](C(=O)N[C@@H](CCC(=O)O)C(=O)NCC(=O)NCC(N)=O)C(C)C)C(C)C [compound 65] (H-H[Aib]EGS[αMeF]TSDV[αMeS]S[αMeF]LEGEAAKEFIK([AEEA-AEEA-γGlu-C18 diacid])WVVEGG-NH2)
[1]; [4]
  EC50: ≥ 25.1 nM
[1]; [5]
  EC50: ≥ 25.1 nM
GLP-1R (INS1e assay); [6]
  EC50: 3160 pM
GLP-1R (INS1e assay); [7]
  EC50: 2570 pM
GLP-1R (INS1e assay); [8]
  EC50: 3740 pM
[2]; [9]
  EC50: 19.7 pM
[2]; [10]
  EC50: 14 pM
[2]; [11]
  EC50: 16.9 pM
[3]; [12]
  EC50: ≥ 25.1 nM
[3]; [13]
  EC50: ≥ 25.1 nM

## CC[C@H](C)[C@H](NC(=O)[C@H](Cc1ccccc1)NC(=O)[C@H](CCC(=O)O)NC(=O)[C@H](CCC(=O)O)NC(=O)[C@H](C)NC(=O)[C@H](C)NC(=O)[C@H](CCC(=O)O)NC(=O)CNC(=O)[C@H](CCC(=O)O)NC(=O)[C@H](CC(C)C)NC(=O)[C@](C)(Cc1ccccc1)NC(=O)[C@H](CO)NC(=O)[C@](C)(CO)NC(=O)[C@@H](NC(=O)[C@H](CC(=O)O)NC(=O)[C@H](CO)NC(=O)[C@@H](NC(=O)[C@](C)(Cc1ccccc1)NC(=O)[C@H](CO)NC(=O)CNC(=O)[C@H](CCC(=O)O)NC(=O)C(C)(C)NC(=O)[C@@H](N)Cc1c[nH]cn1)[C@@H](C)O)C(C)C)C(=O)N[C@@H](CCCCNC(=O)COCCOCCNC(=O)COCCOCCNC(=O)CC[C@H](NC(=O)CCCCCCCCCCCCCCCCC(=O)O)C(=O)O)C(=O)N[C@@H](Cc1c[nH]c2ccccc12)C(=O)N[C@H](C(=O)N[C@H](C(=O)N[C@@H](CCC(=O)O)C(=O)NCC(=O)NCC(N)=O)C(C)C)C(C)C [compound 66] (H-H[Aib]EGS[αMeF]TSDV[αMeS]S[αMeF]LEGEAAEEFIK([AEEA-AEEA-γGlu-C18 diacid])WVVEGG-NH2; N-terminus assumed)
[1]; [4]
  EC50: ≥ 25.1 nM
[1]; [5]
  EC50: ≥ 25.1 nM
GLP-1R (INS1e assay); [6]
  EC50: 42200 pM
GLP-1R (INS1e assay); [7]
  EC50: 45600 pM
GLP-1R (INS1e assay); [8]
  EC50: 38800 pM
[2]; [9]
  EC50: 203 pM
[2]; [10]
  EC50: 97.9 pM
[2]; [11]
  EC50: 150 pM
[3]; [12]
  EC50: ≥ 25.1 nM
[3]; [13]
  EC50: ≥ 25.1 nM

## CC[C@H](C)[C@H](NC(=O)[C@H](Cc1ccccc1)NC(=O)[C@H](CCC(=O)O)NC(=O)C(C)(C)NC(=O)[C@H](C)NC(=O)[C@H](C)NC(=O)[C@H](CCC(=O)O)NC(=O)CNC(=O)[C@H](CCC(=O)O)NC(=O)[C@H](CC(C)C)NC(=O)[C@](C)(Cc1ccccc1)NC(=O)[C@H](CO)NC(=O)[C@](C)(CO)NC(=O)[C@@H](NC(=O)[C@H](CC(=O)O)NC(=O)[C@H](CO)NC(=O)[C@@H](NC(=O)[C@](C)(Cc1ccccc1)NC(=O)[C@H](CO)NC(=O)CNC(=O)[C@H](CCC(=O)O)NC(=O)C(C)(C)NC(=O)[C@@H](N)Cc1c[nH]cn1)[C@@H](C)O)C(C)C)C(=O)N[C@@H](CCCCNC(=O)COCCOCCNC(=O)COCCOCCNC(=O)CC[C@H](NC(=O)CCCCCCCCCCCCCCCCC(=O)O)C(=O)O)C(=O)N[C@@H](Cc1c[nH]c2ccccc12)C(=O)N[C@H](C(=O)N[C@H](C(=O)N[C@@H](CCC(=O)O)C(=O)NCC(=O)NCC(N)=O)C(C)C)C(C)C [compound 67] (H-H[Aib]EGS[αMeF]TSDV[αMeS]S[αMeF]LEGEAA[Aib]EFIK([AEEA-AEEA-γGlu-C18 diacid])WVVEGG-NH2; N-terminus assumed)
[1]; [4]
  EC50: ≥ 25.4 nM
[1]; [5]
  EC50: ≥ 25.4 nM
GLP-1R (INS1e assay); [6]
  EC50: 12100 pM
GLP-1R (INS1e assay); [7]
  EC50: 6150 pM
GLP-1R (INS1e assay); [8]
  EC50: 18100 pM
[2]; [9]
  EC50: 72.1 pM
[2]; [10]
  EC50: 48 pM
[2]; [11]
  EC50: 60.1 pM
[3]; [12]
  EC50: ≥ 25.4 nM
[3]; [13]
  EC50: ≥ 25.4 nM

## CC[C@H](C)[C@H](NC(=O)[C@H](Cc1ccccc1)NC(=O)[C@H](CCC(=O)O)NC(=O)[C@H](C)NC(=O)[C@H](C)NC(=O)[C@H](C)NC(=O)[C@H](CCC(=O)O)NC(=O)CNC(=O)[C@H](CCC(=O)O)NC(=O)[C@H](CC(C)C)NC(=O)[C@](C)(Cc1ccccc1)NC(=O)[C@H](CO)NC(=O)[C@](C)(CO)NC(=O)[C@@H](NC(=O)[C@H](CC(=O)O)NC(=O)[C@H](CO)NC(=O)[C@@H](NC(=O)[C@](C)(Cc1ccccc1)NC(=O)[C@H](CO)NC(=O)CNC(=O)[C@H](CCC(=O)O)NC(=O)C(C)(C)NC(=O)[C@@H](N)Cc1c[nH]cn1)[C@@H](C)O)C(C)C)C(=O)N[C@@H](CCCCNC(=O)COCCOCCNC(=O)COCCOCCNC(=O)CC[C@H](NC(=O)CCCCCCCCCCCCCCCCC(=O)O)C(=O)O)C(=O)N[C@@H](Cc1c[nH]c2ccccc12)C(=O)N[C@H](C(=O)N[C@H](C(=O)N[C@@H](CCC(=O)O)C(=O)NCC(=O)NCC(N)=O)C(C)C)C(C)C [compound 69] (H-H[Aib]EGS[αMeF]TSDV[αMeS]S[αMeF]LEGEAAAEFIK([AEEA-AEEA-γGlu-C18 diacid])WVVEGG-NH2; N-terminus assumed)
[1]; [4]
  EC50: ≥ 25.5 nM
[1]; [5]
  EC50: ≥ 25.5 nM
GLP-1R (INS1e assay); [6]
  EC50: 22100 pM
GLP-1R (INS1e assay); [7]
  EC50: 19200 pM
GLP-1R (INS1e assay); [8]
  EC50: 25000 pM
[2]; [9]
  EC50: 66.1 pM
[2]; [10]
  EC50: 39.9 pM
[2]; [11]
  EC50: 53 pM
[3]; [12]
  EC50: ≥ 25.5 nM
[3]; [13]
  EC50: ≥ 25.5 nM

## CCCCCCCCCCCCCCCC(=O)N[C@@H](CCC(=O)NCCCC[C@H](NC(=O)[C@](C)(CCCCN)NC(=O)[C@@H](NC(=O)[C@@H](NC(=O)[C@](C)(Cc1ccccc1)NC(=O)[C@H](C)NC(=O)[C@@H](NC(=O)[C@](C)(Cc1ccccc1)NC(=O)[C@H](CCC(=O)O)NC(=O)[C@](C)(CCCCN)NC(=O)[C@H](C)NC(=O)[C@H](C)NC(=O)[C@H](CCC(=O)O)NC(=O)CNC(=O)[C@H](CCC(=O)O)NC(=O)[C@H](CC(C)C)NC(=O)[C@](C)(Cc1ccccc1)NC(=O)[C@H](CO)NC(=O)[C@](C)(CO)NC(=O)[C@@H](NC(=O)[C@H](CC(=O)O)NC(=O)[C@H](CO)NC(=O)[C@@H](NC(=O)[C@](C)(Cc1ccccc1)NC(=O)[C@H](CO)NC(=O)CNC(=O)[C@H](CCC(=O)O)NC(=O)C(C)(C)NC(=O)[C@@H](N)Cc1c[nH]cn1)[C@@H](C)O)C(C)C)[C@@H](C)CC)C(C)C)C(C)C)C(=O)NCC(N)=O)C(=O)O [compound 71] (H-H[Aib]EGS[αMeF]TSDV[αMeS]S[αMeF]LEGEAA[αMeK]E[αMeF]IA[αMeF]VV[αMeK]K([γGlu-Palmitoyl])G-NH2)
[1]; [4]
  EC50: ≥ 27 nM
[1]; [5]
  EC50: ≥ 27 nM
GLP-1R (INS1e assay); [6]
  EC50: 723 pM
GLP-1R (INS1e assay); [7]
  EC50: 604 pM
GLP-1R (INS1e assay); [8]
  EC50: 841 pM
[2]; [9]
  EC50: 6.2 pM
[2]; [10]
  EC50: 8 pM
[2]; [11]
  EC50: 7.1 pM
[3]; [12]
  EC50: ≥ 27 nM
[3]; [13]
  EC50: ≥ 27 nM
